What was measured:
Type in all cases: in vivo
[1] = test system: Amaranthus retroflexus (AMARE); assay: Herbicidal pre-emergence action, test C (Table C6); conditions: visual scoring after about 3 weeks, 100% = plants have died, 0% = like control plants
Text: (§1) Seeds of mono- and dicotyledonous weed plants were placed in plastic pots in sandy loam soil (doubly sown with one species each of mono- or dicotyledonous weed plants per pot) and covered with soil. The compounds of the invention, formulated in the form of wettable powders (WP) or as emulsion concentrates (EC), were then applied onto the surface of the covering soil as aqueous suspension or emulsion with addition of 0.5% additive at a water application rate of 600 liters per hectare (converted). After the treatment, the pots were placed in a greenhouse and kept under good growth conditions for the test plants. After about 3 weeks, the effect of the preparations was scored visually in comparison with untreated controls as percentages. For example, 100% activity=the plants have died, 0% activity=like control plants. Tables C1 to C12 below show the effects of selected compounds of the general formula (I) according to Table 1 on various harmful plants and an application rate corresponding to 1280 or 320 g/ha, which were obtained by the experimental procedure mentioned above.

Bassia scoparia (KCHSC) = assay: Herbicidal post-emergence action (Table B11); conditions: dosage 1280 g/ha; visual rating about 3 weeks after treatment; 100% = plants have died, 0% = like control plants
Experimental: (§2) Seeds of mono- and dicotyledonous weed plants were placed in plastic pots in sandy loam soil (doubly sown with in each case one species of mono- or dicotyledonous weed plants per pot), covered with soil and cultivated in a greenhouse under controlled growth conditions. 2 to 3 weeks after sowing, the test plants were treated at the one-leaf stage. The compounds of the invention, formulated in the form of wettable powders (WP) or as emulsion concentrates (EC), were applied onto the green parts of the plants as aqueous suspension or emulsion with addition of 0.5% additive at a water application rate of 600 liters per hectare (converted). After the test plants had been kept in the greenhouse under optimum growth conditions for about 3 weeks, the activity of the preparations was rated visually in comparison to untreated controls. For example, 100% activity=the plants have died, 0% activity=like control plants. Tables B1 to B12 below show the effects of selected compounds of the general formula (I) according to Table 1 on various harmful plants and an application rate corresponding to 1280 or 320 g/ha, which were obtained by the experimental procedure mentioned above.

[2] = test system: Alopecurus myosuroides (ALOMY); assay: Herbicidal post-emergence action (Table B9); conditions: 1280 g/ha; rated visually after about 3 weeks; 100% = plants have died, 0% = like control plants
Experimental: as §2

Poa annua (POAAN) [3] = assay: Herbicidal post-emergence action (Table B3); conditions: rated visually after about 3 weeks, 100% = plants have died, 0% = like control plants
Experimental: as §2

[4] = test system: Digitaria sanguinalis (DIGSA); assay: Herbicidal post-emergence action (Table B10); conditions: dosage 1280 g/ha; visual rating about 3 weeks after treatment; 100% = plants have died, 0% = like control plants
Experimental: as §2

Veronica persica (VERPE) [5] = assay: Herbicidal pre-emergence action, test C (Table C12); conditions: dosage 1280 g/ha, visual scoring vs untreated controls
Text: as §1

[6] = test system: Abutilon theophrasti (ABUTH); assay: Herbicidal post-emergence action (Table B5); conditions: rated visually after about 3 weeks, 100% = plants have died, 0% = like control plants
Experimental: as §2

[7] = test system: harmful plants ABUTH, AMARE, ECHCG, LOLRI, MATIN, POAAN, SETVI, STEME, ALOMY, DIGSA, KCHSC and VERPE; assay: Herbicidal pre-emergence action (test C), summary of Tables C1-C12; conditions: application rate of 1280 or 320 g of active ingredient per hectare; summary in words
Text: as §1, with “percentages.” for “percentages. For example, 100% activity=the plants have died, 0% activity=like control plants. Tables C1 to C12 below show the effects of selected compounds of the general formula (I) according to Table 1 on various harmful plants and an application rate corresponding to 1280 or 320 g/ha, which were obtained by the experimental procedure mentioned above.”
(§3) For example, 100% activity=the plants have died, 0% activity=like control plants.
Tables C1 to C12 below show the effects of selected compounds of the general formula (I) according to Table 1 on various harmful plants and an application rate corresponding to 1280 or 320 g/ha, which were obtained by the experimental procedure mentioned above.
As the results of Tables C1-C12 show, compounds no.

Poa annua (POAAN) [8] = assay: Herbicidal pre-emergence action, test C (Table C3); conditions: visual scoring after about 3 weeks, 100% = plants have died, 0% = like control plants
Text: as §1

Veronica persica (VERPE) [9] = assay: Herbicidal post-emergence action (Table B12); conditions: visual rating about 3 weeks after treatment, 100% = plants have died, 0% = like control plants
Experimental: as §2

Stellaria media (STEME) [10] = assay: Herbicidal pre-emergence action, test C (Table C8); conditions: visual scoring after about 3 weeks, 100% = plants have died, 0% = like control plants
Text: as §1

[11] = test system: Amaranthus retroflexus (AMARE); assay: Herbicidal post-emergence action (Table B6); conditions: visual rating about 3 weeks after treatment, 100% = plants have died, 0% = like control plants
Experimental: as §2

[12] = test system: harmful plants ABUTH, AMARE, ECHCG, LOLRI, MATIN, POAAN, SETVI, STEME, ALOMY, DIGSA, KCHSC and VERPE; assay: Herbicidal post-emergence action, summary of Tables B1-B12; conditions: application rate of 1280 or 320 g of active ingredient per hectare; summary in words
Experimental: as §2, with “controls.” for “controls. For example, 100% activity=the plants have died, 0% activity=like control plants. Tables B1 to B12 below show the effects of selected compounds of the general formula (I) according to Table 1 on various harmful plants and an application rate corresponding to 1280 or 320 g/ha, which were obtained by the experimental procedure mentioned above.”
as §3
Tables B1 to B12 below show the effects of selected compounds of the general formula (I) according to Table 1 on various harmful plants and an application rate corresponding to 1280 or 320 g/ha, which were obtained by the experimental procedure mentioned above.
As the results of Tables B1-B12 show, compounds no.

[13] = test system: Digitaria sanguinalis (DIGSA); assay: Herbicidal pre-emergence action, test C (Table C10); conditions: dosage 1280 g/ha; visual scoring after about 3 weeks; 100% = plants have died, 0% = like control plants
Text: as §1

Stellaria media (STEME) [14] = assay: Herbicidal post-emergence action (Table B8); conditions: visual rating about 3 weeks after treatment, 100% = plants have died, 0% = like control plants
Experimental: as §2

Setaria viridis (SETVI) = assay: Herbicidal pre-emergence action, test C (Table C4); conditions: visual scoring after about 3 weeks, 100% = plants have died, 0% = like control plants
Text: as §1

[15] = test system: Matricaria inodora (MATIN); assay: Herbicidal pre-emergence action, test C (Table C7); conditions: dosage 1280 g/ha; visual scoring after about 3 weeks; 100% = plants have died, 0% = like control plants
Text: as §1

[16] = test system: Echinochloa crus-galli (ECHCG); assay: Herbicidal post-emergence action (Table B1); conditions: 1280 g/ha; rated visually after about 3 weeks; 100% = plants have died, 0% = like control plants
Experimental: as §2

[17] = test system: Abutilon theophrasti (ABUTH); assay: Herbicidal pre-emergence action, test C (Table C5); conditions: dosage 1280 g/ha; visual scoring after about 3 weeks; 100% = plants have died, 0% = like control plants
Text: as §1

Row | Structure (SMILES) | Pre-emergence action against Amaranthus retroflexus (AMARE) ([1]; dosage 1280 g/ha) | Post-emergence action against Bassia scoparia (KCHSC) (Bassia scoparia (KCHSC)) | Post-emergence action against Poa annua (POAAN) (Poa annua (POAAN) [3]; 320 g/ha) | Post-emergence action against Poa annua (POAAN) (Poa annua (POAAN) [3]; 1280 g/ha) | Pre-emergence action against Veronica persica (VERPE) (Veronica persica (VERPE) [5]) | Post-emergence action against Abutilon theophrasti (ABUTH) ([6]; 1280 g/ha) | herbicidal activity against the harmful plants of Tables C1-C12 in pre-emergence treatment [7] | Pre-emergence action against Poa annua (POAAN) (Poa annua (POAAN) [8]; dosage 1280 g/ha) | Post-emergence action against Veronica persica (VERPE) (Veronica persica (VERPE) [9]; dosage 320 g/ha) | Post-emergence action against Veronica persica (VERPE) (Veronica persica (VERPE) [9]; dosage 1280 g/ha) | Pre-emergence action against Stellaria media (STEME) (Stellaria media (STEME) [10]; dosage 320 g/ha) | Pre-emergence action against Stellaria media (STEME) (Stellaria media (STEME) [10]; dosage 1280 g/ha) | Post-emergence action against Amaranthus retroflexus (AMARE) ([11]; dosage 1280 g/ha) | herbicidal activity against the harmful plants of Tables B1-B12 in post-emergence treatment [12] | Pre-emergence action against Digitaria sanguinalis (DIGSA) [13] | Post-emergence action against Stellaria media (STEME) (Stellaria media (STEME) [14]; dosage 320 g/ha) | Post-emergence action against Stellaria media (STEME) (Stellaria media (STEME) [14]; dosage 1280 g/ha) | Pre-emergence action against Setaria viridis (SETVI) (Setaria viridis (SETVI); dosage 1280 g/ha) | Pre-emergence action against Amaranthus retroflexus (AMARE) ([1]; dosage 320 g/ha) | Pre-emergence action against Matricaria inodora (MATIN) [15] | further results
1 | FC(F)(F)c1ccc(-c2ccccc2Oc2ccc(Cl)cn2)nc1 [Example 1-67] | 100% | 90% | 100% | 100% | 100% | 100% | very good herbicidal activity | 100% | 100% | 100% | 100% | 100% | 100% | very good herbicidal activity | 100% | 100% | 100% | 100% | – | – | Post-emergence action against Alopecurus myosuroides (ALOMY) [2]: 90%; Post-emergence action against Digitaria sanguinalis (DIGSA) [4]: 90%; Post-emergence action against Abutilon theophrasti (ABUTH) ([6]; 320 g/ha): 90%
2 | Cc1ccc(-c2cc(C(F)F)no2)c(Oc2ncc(Cl)cc2F)c1 [Example 1-27] | 90% | 90% | – | – | 100% | 90% | very good herbicidal activity | – | 100% | 100% | – | 90% | – | very good herbicidal activity | – | 100% | 100% | – | – | – | –
3 | COc1ccc(-c2cc(C(F)F)no2)c(Oc2ccc(Cl)cn2)c1 [Example 1-39] | 100% | – | 100% | 100% | 100% | 90% | very good herbicidal activity | 100% | 100% | 100% | 100% | 100% | 100% | very good herbicidal activity | 90% | 100% | 100% | 90% | 100% | 90% | Post-emergence action against Echinochloa crus-galli (ECHCG) [16]: 90%; Pre-emergence action against Poa annua (POAAN) (Poa annua (POAAN) [8]; dosage 320 g/ha): 100%; Post-emergence action against Amaranthus retroflexus (AMARE) ([11]; dosage 320 g/ha): 100%
4 | Cc1ccc(-c2ccccc2Oc2ccc(Cl)cn2)nc1 [Example 1-80] | 100% | – | – | – | 100% | 100% | very good herbicidal activity | 90% | 100% | 100% | – | – | 100% | very good herbicidal activity | 100% | – | 100% | 100% | 100% | 90% | –
5 | Cc1ccc(-c2cc(C(F)F)no2)c(Oc2ccccn2)c1 [Example 1-25] | 100% | – | – | – | 90% | 90% | very good herbicidal activity | 90% | – | – | 90% | 100% | – | very good herbicidal activity | – | – | 100% | 100% | 100% | 90% | Post-emergence action against Digitaria sanguinalis (DIGSA) [4]: 100%; Pre-emergence action against Setaria viridis (SETVI) (Setaria viridis (SETVI); dosage 320 g/ha): 100%; Pre-emergence action against Abutilon theophrasti (ABUTH) [17]: 100%
